Data: US7507717B2 (Xenome Ltd., priority 2002, dated 2009)
Residues, ends and D or L forms follow the SMILES beside them.

Molecular target: T1, human noradrenaline transporter (hNET) (Homo sapiens, UniProt P23975)
T1 construct: expressed in transfected cells; host or cells: COS-7 cells (ATCC), transient transfection with metafectene
Assay: biochemical
Format: binding
Settings: Av IC50 Displacement of 3H-nisoxetine from hNET

T1 sequence (P23975 whole entry): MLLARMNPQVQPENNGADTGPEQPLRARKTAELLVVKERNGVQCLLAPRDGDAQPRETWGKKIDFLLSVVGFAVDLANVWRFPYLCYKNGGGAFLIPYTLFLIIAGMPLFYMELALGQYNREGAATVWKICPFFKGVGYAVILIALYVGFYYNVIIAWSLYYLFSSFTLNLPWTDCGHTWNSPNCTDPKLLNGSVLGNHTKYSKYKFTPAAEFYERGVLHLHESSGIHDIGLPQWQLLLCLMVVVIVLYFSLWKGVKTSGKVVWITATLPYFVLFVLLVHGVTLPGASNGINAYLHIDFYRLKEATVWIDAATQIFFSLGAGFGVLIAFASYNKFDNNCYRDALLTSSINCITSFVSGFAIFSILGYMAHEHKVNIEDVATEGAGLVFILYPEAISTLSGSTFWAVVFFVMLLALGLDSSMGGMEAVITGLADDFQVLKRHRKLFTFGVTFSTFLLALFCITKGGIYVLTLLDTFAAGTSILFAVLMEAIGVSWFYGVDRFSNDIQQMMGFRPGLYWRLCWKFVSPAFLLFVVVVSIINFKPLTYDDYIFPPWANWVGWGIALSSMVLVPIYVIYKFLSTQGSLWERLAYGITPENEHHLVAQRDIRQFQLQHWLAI

SMILES	IC50 [nM]
CC(C)C[C@@H]1NC(=O)[C@H](CCCCN)NC(=O)[C@H](Cc2ccc(O)cc2)NC(=O)CNC(=O)[C@@H]2CSSC[C@H](NC1=O)C(=O)N[C@@H](CCCNC(=N)N)C(=O)N[C@@H](C)C(=O)N[C@H](C(N)=O)CSSC[C@H](NC(=O)[C@@H](NC(=O)CNC(=O)[C@H](CCCNC(=N)N)NC(=O)[C@@H](N)Cc1c[nH]c3ccccc13)C(C)C)C(=O)N2 [compound 38]	102
CC(C)C[C@@H]1NC(=O)[C@H](CCCCN)NC(=O)[C@H](Cc2ccc(O)cc2)NC(=O)CNC(=O)[C@@H]2CSSC[C@H](NC1=O)C(=O)N[C@@H](Cc1c[nH]cn1)C(=O)N[C@@H](C)C(=O)N[C@H](C(N)=O)CSSC[C@H](NC(=O)[C@@H](NC(=O)CNC(=O)[C@H](CCCNC(=N)N)NC(=O)[C@@H](N)Cc1c[nH]c3ccccc13)C(C)C)C(=O)N2 [compound 54]	158
CC(C)C[C@@H]1NC(=O)[C@H](CCCCN)NC(=O)[C@H](Cc2ccc(O)cc2)NC(=O)CNC(=O)[C@@H]2CSSC[C@H](NC1=O)C(=O)N[C@@H](Cc1c[nH]c3ccccc13)C(=O)N1CCC[C@H]1C(=O)N[C@H](C(N)=O)CSSC[C@H](NC(=O)[C@@H](NC(=O)CNC(=O)[C@@H](N)CC(N)=O)C(C)C)C(=O)N2 [compound 59] (HELM PEPTIDE1{N.G.V.C.C.G.Y.K.L.C.W.P.C.[am]}$PEPTIDE1,PEPTIDE1,4:R3-13:R3|PEPTIDE1,PEPTIDE1,5:R3-10:R3$$$V2.0)	174
CC(C)C[C@@H]1NC(=O)[C@H](CCCCN)NC(=O)[C@H](Cc2ccc(O)cc2)NC(=O)CNC(=O)[C@@H]2CSSC[C@H](NC1=O)C(=O)N[C@@H](CCCNC(=N)N)C(=O)N1CCC[C@H]1C(=O)N[C@H](C(N)=O)CSSC[C@H](NC(=O)[C@@H](NC(=O)CNC(=O)[C@H](CC(N)=O)NC(=O)[C@@H](N)Cc1c[nH]c3ccccc13)C(C)C)C(=O)N2 [compound 60]	178
CC(C)C[C@@H]1NC(=O)[C@H](CCCCN)NC(=O)[C@H](Cc2ccc(O)cc2)NC(=O)CNC(=O)[C@@H]2CSSC[C@H](NC1=O)C(=O)N[C@@H](Cc1c[nH]cn1)C(=O)N1CCC[C@H]1C(=O)N[C@H](C(N)=O)CSSC[C@H](NC(=O)[C@@H](NC(=O)[C@H](CC(=O)O)NC(=O)[C@@H](N)CC(N)=O)C(C)C)C(=O)N2 [compound 63] (HELM PEPTIDE1{N.D.V.C.C.G.Y.K.L.C.H.P.C.[am]}$PEPTIDE1,PEPTIDE1,4:R3-13:R3|PEPTIDE1,PEPTIDE1,5:R3-10:R3$$$V2.0)	191
CC(C)C[C@H](NC(=O)CNC(=O)[C@H](CCCNC(=N)N)NC(=O)[C@@H](N)Cc1c[nH]c2ccccc12)C(=O)N[C@H]1CSSC[C@@H](C(N)=O)NC(=O)CNC(=O)[C@H](CCCNC(=N)N)NC(=O)[C@@H]2CSSC[C@H](NC1=O)C(=O)NCC(=O)N[C@@H](Cc1ccc(O)cc1)C(=O)N[C@@H](CCCCN)C(=O)N[C@@H](CC(C)C)C(=O)N2 [compound 64] (HELM PEPTIDE1{W.R.G.L.C.C.G.Y.K.L.C.R.G.C.[am]}$PEPTIDE1,PEPTIDE1,5:R3-14:R3|PEPTIDE1,PEPTIDE1,6:R3-11:R3$$$V2.0; N-terminus and C-terminus assumed)	191
CC(C)C[C@@H]1NC(=O)[C@H](CCCCN)NC(=O)[C@H](Cc2ccc(O)cc2)NC(=O)CNC(=O)[C@@H]2CSSC[C@H](NC1=O)C(=O)N[C@@H](CCCNC(=N)N)C(=O)N[C@@H](C)C(=O)N[C@H](C(N)=O)CSSC[C@H](NC(=O)[C@@H](NC(=O)CNC(=O)[C@H](CC(N)=O)NC(=O)[C@@H](N)Cc1c[nH]c3ccccc13)C(C)C)C(=O)N2 [compound 69] (HELM PEPTIDE1{W.N.G.V.C.C.G.Y.K.L.C.R.A.C.[am]}$PEPTIDE1,PEPTIDE1,5:R3-14:R3|PEPTIDE1,PEPTIDE1,6:R3-11:R3$$$V2.0)	219
CC(C)C[C@H](NC(=O)CNC(=O)[C@H](CCCNC(=N)N)NC(=O)[C@@H](N)Cc1c[nH]c2ccccc12)C(=O)N[C@H]1CSSC[C@@H](C(N)=O)NC(=O)[C@H](C)NC(=O)[C@H](CCCNC(=N)N)NC(=O)[C@@H]2CSSC[C@H](NC1=O)C(=O)NCC(=O)N[C@@H](Cc1ccc(O)cc1)C(=O)N[C@@H](CCCCN)C(=O)N[C@@H](CC(C)C)C(=O)N2 [compound 78]	275
CC(C)C[C@@H]1NC(=O)[C@H](CCCCN)NC(=O)[C@H](Cc2ccc(O)cc2)NC(=O)CNC(=O)[C@@H]2CSSC[C@H](NC1=O)C(=O)N[C@@H](CCCNC(=N)N)C(=O)N[C@@H](C)C(=O)N[C@H](C(N)=O)CSSC[C@H](NC(=O)[C@@H](NC(=O)CNC(=O)[C@H](CC(N)=O)NC(=O)[C@@H](N)Cc1ccc(O)cc1)C(C)C)C(=O)N2 [compound 81]	295
CC(C)C[C@@H]1NC(=O)[C@H](CCCCN)NC(=O)[C@H](Cc2ccc(O)cc2)NC(=O)CNC(=O)[C@@H]2CSSC[C@H](NC1=O)C(=O)N[C@@H](CCCNC(=N)N)C(=O)N1CCC[C@H]1C(=O)N[C@H](C(N)=O)CSSC[C@H](NC(=O)[C@@H](NC(=O)CNC(=O)[C@H](CC(N)=O)NC(=O)[C@@H](N)Cc1ccc(O)cc1)C(C)C)C(=O)N2 [compound 84]	302
CC(C)C[C@H](NC(=O)[C@H](CC(=O)O)NC(=O)[C@H](CCCCN)NC(=O)[C@@H](N)Cc1c[nH]c2ccccc12)C(=O)N[C@H]1CSSC[C@@H](C(N)=O)NC(=O)[C@@H]2CCCN2C(=O)[C@H](Cc2c[nH]c3ccccc23)NC(=O)[C@@H]2CSSC[C@H](NC1=O)C(=O)NCC(=O)N[C@@H](Cc1ccc(O)cc1)C(=O)N[C@@H](CCCCN)C(=O)N[C@@H](CC(C)C)C(=O)N2 [compound 90] (HELM PEPTIDE1{W.K.D.L.C.C.G.Y.K.L.C.W.P.C.[am]}$PEPTIDE1,PEPTIDE1,5:R3-14:R3|PEPTIDE1,PEPTIDE1,6:R3-11:R3$$$V2.0)	355
CC(C)C[C@@H]1NC(=O)[C@H](CCCCN)NC(=O)[C@H](Cc2ccc(O)cc2)NC(=O)CNC(=O)[C@@H]2CSSC[C@H](NC1=O)C(=O)N[C@@H](Cc1c[nH]c3ccccc13)C(=O)N1CCC[C@H]1C(=O)N[C@H](C(N)=O)CSSC[C@H](NC(=O)[C@@H](NC(=O)CNC(=O)[C@H](CC(N)=O)NC(=O)[C@@H](N)Cc1ccc(O)cc1)C(C)C)C(=O)N2 [compound 91]	389
CC(C)C[C@H](NC(=O)CNC(=O)[C@@H](N)CC(N)=O)C(=O)N[C@H]1CSSC[C@@H](C(N)=O)NC(=O)[C@@H]2CCCN2C(=O)[C@H](Cc2c[nH]cn2)NC(=O)[C@@H]2CSSC[C@H](NC1=O)C(=O)NCC(=O)N[C@@H](Cc1ccc(O)cc1)C(=O)N[C@@H](CCCCN)C(=O)N[C@@H](CC(C)C)C(=O)N2 [compound 97]	501
CC(C)C[C@@H]1NC(=O)[C@H](CCCCN)NC(=O)[C@H](Cc2ccc(O)cc2)NC(=O)CNC(=O)[C@@H]2CSSC[C@H](NC1=O)C(=O)N[C@@H](Cc1c[nH]cn1)C(=O)N1CCC[C@H]1C(=O)N[C@H](C(N)=O)CSSC[C@H](NC(=O)[C@@H](NC(=O)CNC(=O)[C@@H](N)CCCNC(=N)N)C(C)C)C(=O)N2 [compound 98]	513
CC[C@H](C)[C@H](NC(=O)CN)C(=O)N[C@@H](CC(C)C)C(=O)N[C@@H](CCCNC(=N)N)C(=O)N[C@@H](CC(N)=O)C(=O)NCC(=O)N[C@H](C(=O)N[C@H]1CSSC[C@@H](C(N)=O)NC(=O)[C@@H]2CCCN2C(=O)[C@H](Cc2c[nH]cn2)NC(=O)[C@@H]2CSSC[C@H](NC1=O)C(=O)NCC(=O)N[C@@H](Cc1ccc(O)cc1)C(=O)N[C@@H](CCCCN)C(=O)N[C@@H](CC(C)C)C(=O)N2)C(C)C [compound 105] (HELM PEPTIDE1{G.I.L.R.N.G.V.C.C.G.Y.K.L.C.H.P.C.[am]}$PEPTIDE1,PEPTIDE1,8:R3-17:R3|PEPTIDE1,PEPTIDE1,9:R3-14:R3$$$V2.0)	759
